Laboratory results reported in US4684664A, “Derivatives of β-(4-isocyano-1,2,3,4-diepoxycyclopentyl) acrylic acid” (Kureha Kagaku Kogyo Kabushiki Kaisha, priority 1984, dated 1987).
≈ marks a conversion by molar mass, not a printed value.

Key:
Assay type in all cases: cell-based
[1] = tested on: Staphylococcus aureus FDA 209PJc-1; test: Antibacterial activity, agar-dilution MIC, organism No. 1; settings: Staphylococcus aureus, FDA209PJC1; Organism No. 1, bouillon-agar; read-out: Minimum Inhibitory Concentration
In short: (§1)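 Dilution in agar (bouillon-agar base) is the format; activity is expressed as MIC, μg per ml medium.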

[2] = tested on: Staphylococcus aureus Terajima; test: Antibacterial activity, agar-dilution MIC, organism No. 2; settings: Staphylococcus aureus; Organism No. 2, bouillon-agar; read-out: Minimum Inhibitory Concentration
In short: as §1

[3] = tested on: Staphylococcus aureus MS 353; test: Antibacterial activity, agar-dilution MIC, organism No. 3; settings: Staphylococcus aureus, MS353; Organism No. 3, bouillon-agar; read-out: Minimum Inhibitory Concentration
In short: as §1

[4] = tested on: Streptococcus pyogenes Cook; test: Antibacterial activity, agar-dilution MIC, organism No. 4; settings: Streptococcus pyogenes; Organism No. 4, bouillon-agar; read-out: Minimum Inhibitory Concentration
In short: as §1

[5] = tested on: Escherichia coli NIHJ-JC-2; test: Antibacterial activity, agar-dilution MIC, organism No. 5; settings: Escherichia coli, NIHJJC2; Organism No. 5, bouillon-agar; read-out: Minimum Inhibitory Concentration
In short: as §1

[6] = tested on: Escherichia coli K12 C600 IAM 1264; test: Antibacterial activity, agar-dilution MIC, organism No. 6; settings: Escherichia coli, IAM1264; Organism No. 6, bouillon-agar; read-out: Minimum Inhibitory Concentration
In short: as §1

[7] = tested on: Klebsiella pneumoniae PCI-602; test: Antibacterial activity, agar-dilution MIC, organism No. 7; settings: Klebsiella pneumoniae, PCI602; Organism No. 7, bouillon-agar; read-out: Minimum Inhibitory Concentration
In short: as §1

[8] = tested on: Salmonella typhimurium IID 971; test: Antibacterial activity, agar-dilution MIC, organism No. 8; settings: Salmonella enterica; Organism No. 8, bouillon-agar; read-out: Minimum Inhibitory Concentration
In short: as §1

Salmonella typhi 901 = test: Antibacterial activity, agar-dilution MIC, organism No. 9; settings: Salmonella enterica, TYPHI, read-out: Minimum Inhibitory Concentration
In short: as §1

[9] = tested on: Salmonella paratyphi-A 1015; test: Antibacterial activity, agar-dilution MIC, organism No. 10; settings: Salmonella enterica, PARATYPHI, read-out: Minimum Inhibitory Concentration
In short: as §1

[10] = tested on: Salmonella shottmuelleri 8006; test: Antibacterial activity, agar-dilution MIC, organism No. 11; settings: Salmonella, 8006; Organism No. 11, bouillon-agar; read-out: Minimum Inhibitory Concentration
In short: as §1

[11] = tested on: Salmonella enteritidis G 14; test: Antibacterial activity, agar-dilution MIC, organism No. 12; settings: Salmonella enterica, ENTERITIDIS; Organism No. 12, bouillon-agar; read-out: Minimum Inhibitory Concentration
In short: as §1

[12] = tested on: Serratia marcescens IAM 1184; test: Antibacterial activity, agar-dilution MIC, organism No. 13; settings: Serratia marcescens, IAM1184; Organism No. 13, bouillon-agar; read-out: Minimum Inhibitory Concentration
In short: as §1

[13] = tested on: Bacillus subtilis ATCC 6633; test: Antibacterial activity, agar-dilution MIC, organism No. 14; settings: Bacillus subtilis, ATCC6633; Organism No. 14, bouillon-agar; read-out: Minimum Inhibitory Concentration
In short: as §1

[14] = tested on: Pseudomonas aeruginosa IFO 3445; test: Antibacterial activity, agar-dilution MIC, organism No. 15; settings: Pseudomonas aeruginosa, IFO3445; Organism No. 15, bouillon-agar; read-out: Minimum Inhibitory Concentration
In short: as §1

[15] = tested on: Pseudomonas aeruginosa NCTC 10490; test: Antibacterial activity, agar-dilution MIC, organism No. 16; settings: Pseudomonas aeruginosa, NCTC10490; Organism No. 16, bouillon-agar; read-out: Minimum Inhibitory Concentration
In short: as §1

[16] = tested on: Pseudomonas aeruginosa PAO 1; test: Antibacterial activity, agar-dilution MIC, organism No. 17; settings: Pseudomonas aeruginosa, PAO1; Organism No. 17, bouillon-agar; read-out: Minimum Inhibitory Concentration
In short: as §1

[17] = tested on: Proteus morganii IFO 3848; test: Antibacterial activity, agar-dilution MIC, organism No. 18; settings: Morganella morganii, IFO3848; Organism No. 18, bouillon-agar; read-out: Minimum Inhibitory Concentration
In short: as §1

[18] = tested on: Proteus mirabilis IFO 3849; test: Antibacterial activity, agar-dilution MIC, organism No. 19; settings: Proteus mirabilis, IFO3849; Organism No. 19, bouillon-agar; read-out: Minimum Inhibitory Concentration
In short: as §1

Proteus vulgaris OX-19 = test: Antibacterial activity, agar-dilution MIC, organism No. 20; settings: Proteus vulgaris, OX19; Organism No. 20, bouillon-agar; read-out: Minimum Inhibitory Concentration
In short: as §1

Proteus vulgaris HX-19 = test: Antibacterial activity, agar-dilution MIC, organism No. 21; settings: Proteus vulgaris, HX19; Organism No. 21, bouillon-agar; read-out: Minimum Inhibitory Concentration
In short: as §1

[19] = tested on: Proteus rettgeri IFO 3850; test: Antibacterial activity, agar-dilution MIC, organism No. 22; settings: Providencia rettgeri, IFO3850; Organism No. 22, bouillon-agar; read-out: Minimum Inhibitory Concentration
In short: as §1

[20] = tested on: Enterobacter aerogenes ATCC 13048; test: Antibacterial activity, agar-dilution MIC, organism No. 23; settings: Klebsiella aerogenes, ATCC13048; Organism No. 23, bouillon-agar; read-out: Minimum Inhibitory Concentration
In short: as §1

Enterobacter cloacae 963 = test: Antibacterial activity, agar-dilution MIC, organism No. 24; settings: Enterobacter cloacae, 963; Organism No. 24, bouillon-agar; read-out: Minimum Inhibitory Concentration
In short: as §1

[21] = tested on: Micrococcus luteus ATCC 9341; test: Antibacterial activity, agar-dilution MIC, organism No. 25; settings: Micrococcus luteus, ATCC9341; Organism No. 25, bouillon-agar; read-out: Minimum Inhibitory Concentration
In short: as §1

[22] = tested on: Streptococcus pyogenes IFO 3340; test: Antibacterial activity, agar-dilution MIC, organism No. 26; settings: Streptococcus pyogenes, IFO3340; Organism No. 26, bouillon-agar; read-out: Minimum Inhibitory Concentration
In short: as §1

[23] = tested on: Streptococcus faecium IFO 3826; test: Antibacterial activity, agar-dilution MIC, organism No. 27; settings: Enterococcus faecium, IFO3826; Organism No. 27, bouillon-agar; read-out: Minimum Inhibitory Concentration
In short: as §1

[24] = tested on: Mycoplasma pneumoniae IID817; test: Antimycoplasmal activity, MIC by phenol red colour change, organism No. 28; settings: Mycoplasma, IID817; Organism No. 28, PPLO broth + 1% glucose, 37° C.; read-out: Minimum Inhibitory Concentration (MIC)
Protocol: Mycoplasma pneumoniae IID817 was used as the test microorganism in a culture medium prepared by adding 1% of glucose to "PPLO broth (manufactured by Difco Co.) liquid culture medium" at 37° C. with phenol red as an indicator, thereby culturing the test microorganism.

[25] = tested on: Candida albicans IAM 4905; test: Antifungal activity, agar-dilution MIC, organism No. 29; settings: Candida albicans, IAM4905; Organism No. 29, bouillon-agar; read-out: Minimum Inhibitory Concentration
In short: as §1

[26] = tested on: Aspergillus niger IFO 6342; test: Antifungal activity, agar-dilution MIC, organism No. 30; settings: Aspergillus niger, IFO6342; Organism No. 30, bouillon-agar; read-out: Minimum Inhibitory Concentration
In short: as §1

[C-]#[N+]C12CC3(/C=C/C(=O)NOCc4ccccc4)OC3C1O2 (stereo not drawn) [compound 82]
MIC [1]: < 0.05 µg/mL
MIC [2]: 0.2 µg/mL (≈ 0.67 µM)
MIC [3]: < 0.05 µg/mL
MIC [4]: 0.78 µg/mL (≈ 2.61 µM)
MIC [5]: 12.5 µg/mL (≈ 41.9 µM)
MIC [6]: 12.5 µg/mL (≈ 41.9 µM)
MIC [7]: 0.39 µg/mL (≈ 1.31 µM)
MIC [8]: 6.25 µg/mL (≈ 21 µM)
MIC (Salmonella typhi 901): 0.78 µg/mL (≈ 2.61 µM)
MIC [9]: 0.78 µg/mL (≈ 2.61 µM)
MIC [10]: 0.78 µg/mL (≈ 2.61 µM)
MIC [11]: 0.78 µg/mL (≈ 2.61 µM)
MIC [12]: > 200 µg/mL
MIC [13]: 6.25 µg/mL (≈ 21 µM)
MIC [14]: > 200 µg/mL
MIC [15]: > 200 µg/mL
MIC [16]: > 200 µg/mL
MIC [17]: 0.78 µg/mL (≈ 2.61 µM)
MIC [18]: > 200 µg/mL
MIC (Proteus vulgaris OX-19): 0.2 µg/mL (≈ 0.67 µM)
MIC (Proteus vulgaris HX-19): 0.1 µg/mL (≈ 0.335 µM)
MIC [19]: > 200 µg/mL
MIC [20]: > 200 µg/mL
MIC (Enterobacter cloacae 963): > 200 µg/mL
MIC [21]: 12.5 µg/mL (≈ 41.9 µM)
MIC [22]: 1.56 µg/mL (≈ 5.23 µM)
MIC [23]: 1.56 µg/mL (≈ 5.23 µM)
MIC [24]: < 0.2 µg/mL
MIC [25]: 0.39 µg/mL (≈ 1.31 µM)
MIC [26]: 3.13 µg/mL (≈ 10.5 µM)

[C-]#[N+]C12CC3(/C=C/C(=O)Nc4cccc(C(F)(F)F)c4)OC3C1O2 (stereo not drawn) [compound 47]
MIC [1]: < 0.05 µg/mL
MIC [2]: 0.2 µg/mL (≈ 0.595 µM)
MIC [3]: < 0.05 µg/mL
MIC [4]: 200 µg/mL (≈ 595 µM)
MIC [5]: 200 µg/mL (≈ 595 µM)
MIC [6]: 200 µg/mL (≈ 595 µM)
MIC [7]: < 0.05 µg/mL
MIC [8]: 3.13 µg/mL (≈ 9.31 µM)
MIC (Salmonella typhi 901): 3.13 µg/mL (≈ 9.31 µM)
MIC [9]: 3.13 µg/mL (≈ 9.31 µM)
MIC [10]: 0.1 µg/mL (≈ 0.297 µM)
MIC [11]: 3.13 µg/mL (≈ 9.31 µM)
MIC [12]: 25 µg/mL (≈ 74.3 µM)
MIC [13]: 0.78 µg/mL (≈ 2.32 µM)
MIC [14]: > 200 µg/mL
MIC [15]: > 200 µg/mL
MIC [16]: > 200 µg/mL
MIC [17]: < 0.05 µg/mL
MIC [18]: > 200 µg/mL
MIC (Proteus vulgaris OX-19): < 0.05 µg/mL
MIC (Proteus vulgaris HX-19): < 0.05 µg/mL
MIC [19]: 50 µg/mL (≈ 149 µM)
MIC [20]: > 200 µg/mL
MIC (Enterobacter cloacae 963): > 200 µg/mL
MIC [21]: 0.78 µg/mL (≈ 2.32 µM)
MIC [22]: 0.39 µg/mL (≈ 1.16 µM)
MIC [23]: 3.13 µg/mL (≈ 9.31 µM)
MIC [24]: < 0.2 µg/mL
MIC [25]: 1.56 µg/mL (≈ 4.64 µM)
MIC [26]: 3.13 µg/mL (≈ 9.31 µM)
